The record followed here is article PMC5218480 (PLoS ONE, 2017).

For this assay, the system named is MV-4-11 cells. In words: Gene expression microarray analysis (Affymetrix PrimeView) and GSEA. Conditions: MV-4-11 cells, 48 hours. The class given is cell-based, human. Details: RFU PODN (11730768_x_at) / Fold change /veh PODN (11730768_x_at) / RFU LINC00158 (11744669_a_at) / Fold change /veh LINC00158 (11744669_a_at) / RFU DUSP10 (11751237_a_at) / Fold change /veh DUSP10 (11751237_a_at) / RFU ID3 (11757404_x_at) / Fold change /veh ID3 (11757404_x_at) / RFU PLEKHG5 (11737974_s_at) / Fold change /veh PLEKHG5 (11737974_s_at) / RFU LRRC4B (11730491_at) / Fold change /veh LRRC4B (11730491_at) / RFU GIMAP4 (11747438_a_at) / Fold change /veh GIMAP4 (11747438_a_at) / RFU KRT8 (11758183_x_at) / Fold change /veh KRT8 (11758183_x_at) / RFU CNN1 (11734310_a_at) / Fold change /veh CNN1 (11734310_a_at) / RFU VPS37D (11726825_at) / Fold change /veh VPS37D (11726825_at) / RFU C10orf10 (11716522_x_at) / Fold change /veh C10orf10 (11716522_x_at) / RFU KIR2DL2 /// KIR2DL4 /// KIR2DL5A /// KIR2DL5B /// KIR2DS1 /// KIR2DS2 /// KIR2DS3 /// KIR2DS4 /// KIR3DL3 /// KIR3DL3 /// KIR3DS1 (11738374_at) / Fold change /veh KIR2DL2 /// KIR2DL4 /// KIR2DL5A /// KIR2DL5B /// KIR2DS1 /// KIR2DS2 /// KIR2DS3 /// KIR2DS4 /// KIR3DL3 /// KIR3DL3 /// KIR3DS1 (11738374_at) / RFU C1QL1 (11718748_at) / Fold change /veh C1QL1 (11718748_at) / RFU TMPRSS4 (11747572_a_at) / Fold change /veh TMPRSS4 (11747572_a_at) / RFU HAMP (11756126_x_at) / Fold change /veh HAMP (11756126_x_at) / RFU RNFT2 (11725882_a_at) / Fold change /veh RNFT2 (11725882_a_at) / RFU NR4A2 (11747474_a_at) / Fold change /veh NR4A2 (11747474_a_at) / RFU ABCC12 (11746883_a_at) / Fold change /veh ABCC12 (11746883_a_at) / RFU TMEM136 (11760407_x_at) / Fold change /veh TMEM136 (11760407_x_at) / RFU CLDN22 /// WWC2 (11732394_at) / Fold change /veh CLDN22 /// WWC2 (11732394_at) / RFU HLA-DPB1 (11760878_x_at) / Fold change /veh HLA-DPB1 (11760878_x_at) / RFU SPINT1 (11716480_a_at) / Fold change /veh SPINT1 (11716480_a_at) / RFU GAP43 (11754022_s_at) / Fold change /veh GAP43 (11754022_s_at) / RFU A4GNT (11735810_at) / Fold change /veh A4GNT (11735810_at) / RFU PRB3 (11715151_x_at) / Fold change /veh PRB3 (11715151_x_at) / RFU TUBB4B (11761932_at) / Fold change /veh TUBB4B (11761932_at) / RFU CAPN14 (11732068_a_at) / Fold change /veh CAPN14 (11732068_a_at) / RFU TMCC2 (11721928_a_at) / Fold change /veh TMCC2 (11721928_a_at) / RFU IRGQ (11745062_a_at) / Fold change /veh IRGQ (11745062_a_at) / RFU FAM174B (11720279_a_at) / Fold change /veh FAM174B (11720279_a_at) / RFU TMPRSS4 (11748680_a_at) / Fold change /veh TMPRSS4 (11748680_a_at) / RFU FAM212B (11763350_a_at) / Fold change /veh FAM212B (11763350_a_at) / RFU PLEKHG5 (11743358_a_at) / Fold change /veh PLEKHG5 (11743358_a_at) / RFU ZSCAN30 (11745921_a_at) / Fold change /veh ZSCAN30 (11745921_a_at) / RFU CMKLR1 (11741424_a_at) / Fold change /veh CMKLR1 (11741424_a_at) / RFU LOC101060620 /// MAPK8IP1 (11723275_at) / Fold change /veh LOC101060620 /// MAPK8IP1 (11723275_at) / RFU SPTSSB (11747773_x_at) / Fold change /veh SPTSSB (11747773_x_at) / RFU PRSS12 (11739890_at) / Fold change /veh PRSS12 (11739890_at) / RFU BIN1 (11741810_x_at) / Fold change /veh BIN1 (11741810_x_at) / RFU WNT11 (11732464_a_at) / Fold change /veh WNT11 (11732464_a_at) / RFU C10orf10 (11716521_a_at) / Fold change /veh C10orf10 (11716521_a_at) / RFU C5orf56 (11738089_at) / Fold change /veh C5orf56 (11738089_at) / RFU CYB561 (11721691_x_at) / Fold change /veh CYB561 (11721691_x_at) / RFU ANKRD19P (11752326_a_at) / Fold change /veh ANKRD19P (11752326_a_at) / RFU OR2T12 /// OR2T33 /// OR2T8 (11738714_s_at) / Fold change /veh OR2T12 /// OR2T33 /// OR2T8 (11738714_s_at) / RFU VCAN (11748164_a_at) / Fold change /veh VCAN (11748164_a_at) / RFU JSRP1 (11732532_at) / Fold change /veh JSRP1 (11732532_at) / RFU KRTAP10-11 (11738290_x_at) / Fold change /veh KRTAP10-11 (11738290_x_at) / RFU MYO3A (11730013_a_at) / Fold change /veh MYO3A (11730013_a_at) / RFU EBF3 (11725865_a_at) / Fold change /veh EBF3 (11725865_a_at) / RFU CAMK2N1 (11719241_x_at) / Fold change /veh CAMK2N1 (11719241_x_at) / RFU C5orf56 (11738088_a_at) / Fold change /veh C5orf56 (11738088_a_at) / RFU OLFML3 (11715873_a_at) / Fold change /veh OLFML3 (11715873_a_at) / RFU LOC100653217 /// NTM (11731650_a_at) / Fold change /veh LOC100653217 /// NTM (11731650_a_at) / RFU MAPK11 (11762145_a_at) / Fold change /veh MAPK11 (11762145_a_at) / RFU FIZ1 (11724087_x_at) / Fold change /veh FIZ1 (11724087_x_at) / RFU OASL (11726364_x_at) / Fold change /veh OASL (11726364_x_at) / RFU SOX15 (11748057_x_at) / Fold change /veh SOX15 (11748057_x_at) / RFU CD79A (11719716_a_at) / Fold change /veh CD79A (11719716_a_at) / RFU HIST1H1D (11736915_at) / Fold change /veh HIST1H1D (11736915_at) / RFU CASKIN2 (11723855_a_at) / Fold change /veh CASKIN2 (11723855_a_at) / RFU LOC730098 (11760151_x_at) / Fold change /veh LOC730098 (11760151_x_at) / RFU OR4N2 (11742367_at) / Fold change /veh OR4N2 (11742367_at) / RFU PRRT2 (11749266_a_at) / Fold change /veh PRRT2 (11749266_a_at) / RFU SNX32 (11753110_a_at) / Fold change /veh SNX32 (11753110_a_at) / RFU CDHR5 (11726645_a_at) / Fold change /veh CDHR5 (11726645_a_at) / RFU RCAN1 (11760418_a_at) / Fold change /veh RCAN1 (11760418_a_at) / RFU FAM167A (11723789_a_at) / Fold change /veh FAM167A (11723789_a_at) / RFU FAM26E (11764081_at) / Fold change /veh FAM26E (11764081_at) / RFU ISYNA1 (11749810_s_at) / Fold change /veh ISYNA1 (11749810_s_at) / RFU ACY1 (11761880_at) / Fold change /veh ACY1 (11761880_at) / RFU 11764098_at / Fold change /veh 11764098_at / RFU SAMD14 (11745864_x_at) / Fold change /veh SAMD14 (11745864_x_at) / RFU NPB (11741838_a_at) / Fold change /veh NPB (11741838_a_at) / RFU TMPRSS6 (11731388_a_at) / Fold change /veh TMPRSS6 (11731388_a_at) / RFU KRTAP10-2 (11738614_at) / Fold change /veh KRTAP10-2 (11738614_at) / RFU ARHGAP8 /// PRR5-ARHGAP8 (11727945_x_at) / Fold change /veh ARHGAP8 /// PRR5-ARHGAP8 (11727945_x_at) / RFU KRTAP5-7 /// NADSYN1 (11734609_at) / Fold change /veh KRTAP5-7 /// NADSYN1 (11734609_at) / RFU RASL12 (11751679_a_at) / Fold change /veh RASL12 (11751679_a_at) / RFU CDKN2B (11736163_a_at) / Fold change /veh CDKN2B (11736163_a_at) / RFU PRF1 (11729649_at) / Fold change /veh PRF1 (11729649_at) / RFU, ZNF638 /// ZNF638-IT1 / Fold change vs veh, ZNF638 /// ZNF638-IT1 / RFU, PANK3 / Fold change vs veh, PANK3 / RFU, SH3YL1 / Fold change vs veh, SH3YL1 / RFU, ZEB2 / Fold change vs veh, ZEB2 / RFU, NRIP1 / Fold change vs veh, NRIP1 / RFU, PTTG1IP / Fold change vs veh, PTTG1IP / RFU, CAPN2 / Fold change vs veh, CAPN2 / RFU, MED14 / Fold change vs veh, MED14 / RFU, SNORA58 / Fold change vs veh, SNORA58 / RFU, C1orf63 / Fold change vs veh, C1orf63 / RFU, LRRFIP1 / Fold change vs veh, LRRFIP1 / RFU, NDUFAF7 / Fold change vs veh, NDUFAF7 / RFU, SLC12A2 / Fold change vs veh, SLC12A2 / RFU, IBTK / Fold change vs veh, IBTK / RFU, ESF1 / Fold change vs veh, ESF1 / Fold change vs veh, TMEM50B / RFU, TAOK1 / Fold change vs veh, TAOK1 / RFU, ACBD3 / Fold change vs veh, ACBD3 / RFU, TMA16 / Fold change vs veh, TMA16 / RFU, RWDD3 / Fold change vs veh, RWDD3 / RFU, BCAT1 / Fold change vs veh, BCAT1 / RFU, EDEM3 / Fold change vs veh, EDEM3 / RFU, TMEM33 / Fold change vs veh, TMEM33 / RFU, WDR75 / Fold change vs veh, WDR75 / RFU, AHCTF1 / Fold change vs veh, AHCTF1 / RFU, TFRC / Fold change vs veh, TFRC / RFU, ZDHHC17 / Fold change vs veh, ZDHHC17 / RFU, NOM1 / Fold change vs veh, NOM1 / RFU, ARL8B / Fold change vs veh, ARL8B / RFU, ZBTB11 / Fold change vs veh, ZBTB11 / RFU, TAMM41 / Fold change vs veh, TAMM41 / RFU, KIAA1704 /// LOC100996395 / Fold change vs veh, KIAA1704 /// LOC100996395 / RFU, ING1 / Fold change vs veh, ING1 / RFU, TRMT61B / Fold change vs veh, TRMT61B / RFU, FUBP3 / Fold change vs veh, FUBP3 / RFU, TP53 / Fold change vs veh, TP53 / RFU, TNKS2 / Fold change vs veh, TNKS2 / RFU, ZFP14 / Fold change vs veh, ZFP14 / RFU, ACTR2 / Fold change vs veh, ACTR2 / RFU, PPP3R1 / Fold change vs veh, PPP3R1 / RFU, PIK3R1 / Fold change vs veh, PIK3R1 / RFU, HNRNPA1 / Fold change vs veh, HNRNPA1 / RFU, RNF170 / Fold change vs veh, RNF170 / RFU, ZNF28 / Fold change vs veh, ZNF28 / RFU, RNGTT / Fold change vs veh, RNGTT / RFU, OGT / Fold change vs veh, OGT / RFU, BRD1 / Fold change vs veh, BRD1 / RFU, MARS / Fold change vs veh, MARS / RFU, ZNF655 / Fold change vs veh, ZNF655 / RFU, FAHD1 / Fold change vs veh, FAHD1 / RFU, BDP1 / Fold change vs veh, BDP1 / RFU, LRRCC1 / Fold change vs veh, LRRCC1 / RFU, ARID1A / Fold change vs veh, ARID1A / RFU, ZNF146 / Fold change vs veh, ZNF146 / RFU, ZNF330 / Fold change vs veh, ZNF330 / RFU, GPN3 / Fold change vs veh, GPN3 / RFU, C9orf123 / Fold change vs veh, C9orf123 / RFU, N4BP2L2 / Fold change vs veh, N4BP2L2 / RFU, ARFIP1 / Fold change vs veh, ARFIP1 / RFU, FAM179B / Fold change vs veh, FAM179B / RFU, BCL10 / Fold change vs veh, BCL10 / RFU, UHRF1BP1L / Fold change vs veh, UHRF1BP1L / RFU, BET1 / Fold change vs veh, BET1 / RFU, CNOT2 / Fold change vs veh, CNOT2 / RFU, ZNF268 / Fold change vs veh, ZNF268 / Fold change vs veh, ZNF507 / RFU, DGCR2 / Fold change vs veh, DGCR2 / RFU, WDSUB1 / Fold change vs veh, WDSUB1 / Fold change vs veh, HSP90B1 /// MIR3652 / RFU, ADSS / Fold change vs veh, ADSS / RFU, GK / Fold change vs veh, GK / RFU, ZNF148 / Fold change vs veh, ZNF148 / RFU, TAF9 / Fold change vs veh, TAF9 / RFU, SLC1A5 / Fold change vs veh, SLC1A5 / RFU, SLMO2 / Fold change vs veh, SLMO2 / RFU, ABCC4 / Fold change vs veh, ABCC4 / RFU, LOC101060439 /// RAP1B / Fold change vs veh, LOC101060439 /// RAP1B / RFU, RFX7 / Fold change vs veh, RFX7 / RFU, GTPBP10 / Fold change vs veh, GTPBP10 / RFU, CNEP1R1 / Fold change vs veh, CNEP1R1 / RFU, BIVM-ERCC5 /// ERCC5 / Fold change vs veh, BIVM-ERCC5 /// ERCC5 / RFU, ILF3 / Fold change vs veh, ILF3 / RFU 11762660_at / Fold change /veh 11762660_at / RFU VCAN (11757783_s_at) / Fold change /veh VCAN (11757783_s_at) / RFU DDX43 (11728927_at) / Fold change /veh DDX43 (11728927_at) / RFU KRT8 (11758188_x_at) / Fold change /veh KRT8 (11758188_x_at) / RFU NKD1 (11759106_at) / Fold change /veh NKD1 (11759106_at) / RFU SRD5A1 (11742802_a_at) / Fold change /veh SRD5A1 (11742802_a_at) / RFU TPSAB1 /// TPSB2 (11721975_s_at) / Fold change /veh TPSAB1 /// TPSB2 (11721975_s_at) / RFU GSTM3 (11746129_a_at) / Fold change /veh GSTM3 (11746129_a_at) / RFU IL23R (11737362_x_at) / Fold change /veh IL23R (11737362_x_at) / RFU TMEM51 (11727254_a_at) / Fold change /veh TMEM51 (11727254_a_at) / RFU PIWIL2 (11732686_x_at) / Fold change /veh PIWIL2 (11732686_x_at) / RFU ORM1 (11744905_x_at) / Fold change /veh ORM1 (11744905_x_at) / RFU CCDC152 (11743942_at) / Fold change /veh CCDC152 (11743942_at) / RFU ECM1 (11717891_a_at) / Fold change /veh ECM1 (11717891_a_at) / RFU IL23R (11748794_a_at) / Fold change /veh IL23R (11748794_a_at) / RFU TNFAIP8L3 (11732012_x_at) / Fold change /veh TNFAIP8L3 (11732012_x_at) / RFU MBOAT4 (11741988_at) / Fold change /veh MBOAT4 (11741988_at) / RFU 11764193_at / Fold change /veh 11764193_at / RFU TMEM53 (11763286_at) / Fold change /veh TMEM53 (11763286_at) / RFU MAGEB2 (11727129_at) / Fold change /veh MAGEB2 (11727129_at) / RFU TMEM200A (11744735_a_at) / Fold change /veh TMEM200A (11744735_a_at) / RFU CCDC152 (11751479_a_at) / Fold change /veh CCDC152 (11751479_a_at) / RFU FAM211A (11726209_a_at) / Fold change /veh FAM211A (11726209_a_at) / RFU RGS16 (11746705_a_at) / Fold change /veh RGS16 (11746705_a_at) / RFU VCAN (11755009_s_at) / Fold change /veh VCAN (11755009_s_at) / RFU RHOB (11743442_s_at) / Fold change /veh RHOB (11743442_s_at) / RFU RGS16 (11720943_a_at) / Fold change /veh RGS16 (11720943_a_at) / RFU RGS16 (11720944_at) / Fold change /veh RGS16 (11720944_at) / RFU, VPS4B / Fold change vs veh, VPS4B / RFU, CREB1 / Fold change vs veh, CREB1 / RFU, DNAJC13 / Fold change vs veh, DNAJC13 / RFU, GNAQ / Fold change vs veh, GNAQ / RFU, CDK5R1 / Fold change vs veh, CDK5R1 / RFU, ZRANB3 / Fold change vs veh, ZRANB3 / RFU, CUL4A / Fold change vs veh, CUL4A / RFU, CCNY / Fold change vs veh, CCNY / RFU, UFL1 / Fold change vs veh, UFL1 / RFU, COG3 / Fold change vs veh, COG3 / RFU, DIAPH2 / Fold change vs veh, DIAPH2 / RFU, SKA2 / Fold change vs veh, SKA2 / RFU, AFF3 / Fold change vs veh, AFF3 / RFU, LMF1 / Fold change vs veh, LMF1 / RFU, IPO11 / Fold change vs veh, IPO11 / RFU, DFFB / Fold change vs veh, DFFB / RFU, FOXP1 / Fold change vs veh, FOXP1 / RFU, CARD8 / Fold change vs veh, CARD8 / RFU, STRN3 / Fold change vs veh, STRN3 / RFU, ADK / Fold change vs veh, ADK / RFU, RASSF2 / Fold change vs veh, RASSF2 / RFU, WIPF1 / Fold change vs veh, WIPF1 / RFU, LARP1B / Fold change vs veh, LARP1B / RFU, RASA1 / Fold change vs veh, RASA1 / RFU, RB1 / Fold change vs veh, RB1 / RFU, PPFIA1 / Fold change vs veh, PPFIA1 / RFU, MAT2A / Fold change vs veh, MAT2A / RFU, CCT5 / Fold change vs veh, CCT5 / RFU, WDR92 / Fold change vs veh, WDR92 / RFU, CUX1 / Fold change vs veh, CUX1 / RFU, TTC7A / Fold change vs veh, TTC7A / RFU, TMEM135 / Fold change vs veh, TMEM135 / RFU, DEPTOR / Fold change vs veh, DEPTOR / RFU, CPM / Fold change vs veh, CPM / RFU, DNAJB6 / Fold change vs veh, DNAJB6 / RFU, CACNA2D3 / Fold change vs veh, CACNA2D3 / RFU, DTX4 / Fold change vs veh, DTX4 / RFU, TFCP2 / Fold change vs veh, TFCP2 / RFU, GMCL1 /// GMCL1P1 / Fold change vs veh, GMCL1 /// GMCL1P1 / RFU, AEBP2 / Fold change vs veh, AEBP2 / RFU, SNHG1 /// SNORD22 /// SNORD25 /// SNORD26 /// SNORD27 /// SNORD28 /// SNORD29 /// SNORD31 / Fold change vs veh, SNHG1 /// SNORD22 /// SNORD25 /// SNORD26 /// SNORD27 /// SNORD28 /// SNORD29 /// SNORD31 / Fold change (Aza/veh), C12orf56 (ProbeSet 11735607_a_at) / Fold change (ACY-1035/veh), C12orf56 (ProbeSet 11735607_a_at) / Fold change (Aza/veh), FGFR1OP (ProbeSet 11751329_s_at) / Fold change (ACY-1035/veh), FGFR1OP (ProbeSet 11751329_s_at) / Fold change (Aza/veh), VPS36 (ProbeSet 11739960_a_at) / Fold change (ACY-1035/veh), VPS36 (ProbeSet 11739960_a_at) / RFU SYPL1 (11715823_x_at) / Fold change /veh SYPL1 (11715823_x_at) / RFU IGFBP7 (11715501_s_at) / Fold change /veh IGFBP7 (11715501_s_at) / RFU REEP3 (11722064_at) / Fold change /veh REEP3 (11722064_at) / RFU IGLL1 (11728026_x_at) / Fold change /veh IGLL1 (11728026_x_at): dose or concentration left out as unconfirmed.

In the case of `Nc1ccc(-c2cccs2)cc1NC(=O)c1ccc2c(c1)cc(C1CC1)n2CCN1CCOCC1` [ACY-1035], the “Fold change /veh ORM1 (11744905_x_at)” value stood at 1.11.
